The record followed here is a melting point compilation (Tetko et al.; mined from patent text by program, amines drawn as free bases though some values may be those of a salt).

Broadly, the melting point is the temperature, or range, at which the solid turns liquid.

Each structure is given as a SMILES string.

`O=P1(O)Oc2c(Cl)cc(Cc3ccccc3)cc2-c2ccccc21` gave a melting point of 240 °C.

`N=C(Nc1ccc(F)cc1)Nc1nc(-c2ccccc2)cs1` yielded a melting point of 156 to 158 °C.

Regarding `COc1cn(-c2ccc(N3CCCC(F)(F)C3)cc2F)nc(-c2ccnn2-c2ccccc2)c1=O`, the melting point is 182 to 187 °C.

Take `CCOP(=O)(Cc1nc(Cl)cc(N2CCCC2)n1)OCC`: the melting point lay in the range of 68 to 69 °C.

Consider `CC1=NN(c2cc(-c3ccnc(Nc4cccc(Cl)c4)n3)ccn2)C(=O)CC1`, for which the melting point lay in the range of 189 to 192 °C.

Compound `S=C1Nc2ccccc2N2CCN(Cc3ccccc3)CCN12` yielded a melting point of 125 to 127 °C.

Regarding `OC(CCCl)COc1ccc(Cl)c(Cl)c1` (configuration not stated), the melting point was 82 to 84 °C.

`CCOc1cc2cc(OC)c(OC)cc2c(Cc2ccc(OC)c(OC)c2)n1`: the melting point was 110 to 112 °C.

`CC(=O)CSc1nc2ccc(Cc3ccccc3)cc2[nH]1` returned a melting point of 102 °C.

Regarding `O=[N+]([O-])c1ccc2snc(-c3ccccc3)c2c1`, the melting point was 130 °C.

Compound `CC(C)(C)OC(=O)Nc1ccc2nc(N3CCOCC3)nn2c1` had a melting point of 166 °C.

Compound `C[C@@H](n1cnc2cc(-c3ccc([N+](=O)[O-])cc3)sc2c1=O)[C@](O)(Cn1cncn1)c1ccc(F)cc1F` registered a melting point of 272 to 273 °C.

Turning to `COc1cc2c(cc1OC)/C(=N/OCc1ccc([N+](=O)[O-])cc1)CCC2`, the melting point lay within 124 to 127 °C.

In turn, `O=C(NC(=O)c1c(F)cccc1F)Nc1ccc(SC(F)(F)F)cc1F` came in with a melting point of 173 to 175 °C.

In turn, `O=C(O)C(CCc1ccccc1)Oc1c(Br)cc(-c2ccc(-c3c(Cc4ccccc4)sc4ccccc34)cc2)cc1Br` (configuration not stated) showed a melting point of 85 to 87 °C.

Compound `COc1nc(NC(=O)NS(=O)(=O)c2ccccc2C(=O)OCCCl)nc(OC)n1` had a melting point of 171 to 174 °C.

For `C=C(C)CC1(OC=C(C)C)CC=C(C)C(NC=O)=C1C` (configuration not stated), the melting point is 109 °C.

For the compound `O=C(CN1CSCC1=O)N1CCC(c2c[nH]c3ccccc23)CC1`, the melting point was 174 to 175 °C.

The compound `Cc1cc2oc(=O)c(NC(=O)Nc3cccc(C(F)(F)F)c3)c(-c3ccccc3C)c2cc1Cl` had a melting point of 203 to 205 °C.

Turning to `COc1ccc(CNc2nc(SC)ncc2C(=O)NCc2ccccn2)cc1Cl`, the melting point lay in the range of 143 to 144 °C.

`CCCN1CC(C)=CC2=C1N1CN(OC)C=C1N=N2` registered a melting point of 163 to 165 °C.

In the case of `CCOC(=O)C=C1CN(C)C(=O)c2ccccc2N1`, the melting point fell in the range of 154 to 155 °C.

Take `CN1CCN(c2ccc(N)cc2C#N)CC1`: the melting point is 45 to 46 °C.

Compound `Cc1c(C)n(Cc2ccccc2)c2ncnc(Nc3cccc(Cl)c3)c12` yielded a melting point of 132 to 133 °C.

As to `CC(C)(C)c1cc(CCc2ccccc2NC(=O)NC2CCN(Cc3ccccn3)CC2)cc(C(C)(C)C)c1O`, the melting point fell in the range of 106 to 109 °C.

In turn, `O=C(O)Cc1c(Cl)cc([N+](=O)[O-])cc1Cl` displayed a melting point of 206 to 207 °C.

On to `Cc1c(C)c2c(c(C)c1OCC=Cc1ccccc1)C(c1ccc(C(C)C)cc1)C(C)(C)O2` (configuration not stated), for which the melting point was 106 to 107 °C.

The compound `Cc1ccc(-c2nc(C)c3c(=O)[nH]ncn23)cc1` displayed a melting point of 251 to 253 °C.

`CC(C)(O)c1cnn2c(-c3ccc(F)c(-c4ccc(F)cc4C#N)c3)cnc2n1` registered a melting point of 215 °C.

As to `CC(C)Cc1ccc(C(C)C(=O)NCCCCn2cnc3c(N)nc4ccccc4c32)cc1` (configuration not stated), the melting point lay within 172 to 173 °C.

Turning to `Cc1cc(C)cc(-c2nc(N)sc2-c2ccnc(NC(=O)c3ccccc3)c2)c1`, the melting point fell in the range of 120 to 123 °C.

Consider `Cc1ccccc1-c1c(NC(=O)Nc2ccc(F)cc2F)c(=O)oc2ccc(C(C)C)cc12`, for which the melting point is 199 to 200 °C.

`CC(=O)OCc1c(Br)cnc2c(NC(=O)c3c(Cl)cccc3Cl)cccc12` registered a melting point of 201 to 202 °C.

The compound `NC(=O)c1[nH]c2ccc(Cl)cc2c1S(=O)(=O)c1ccc(Cl)cc1` registered a melting point of 275 to 277 °C.

With `CCn1cc(C(=O)NCc2ccc(Cl)cc2)c(=O)c2cc(CCCO)sc21`, the melting point is 144 to 146 °C.

In turn, `CC(Oc1ccc(Oc2ccc3cc(Cl)ccc3n2)cc1)C(=O)O` (configuration not stated) yielded a melting point of 130 °C.

Take `COc1ccc(-c2cc(-c3ccccc3C(=O)O)no2)cc1`: the melting point fell in the range of 182 to 185 °C.

Compound `Cc1c(-c2ccc(C3CCCCC3)cc2)nc2ccc(F)cc2c1C(=O)O` showed a melting point of 316 to 323 °C.

The compound `CCOc1cc(C(CS(C)(=O)=O)N2C(=O)c3cccc(NC(=O)COCc4ccccc4)c3C2=O)ccc1OC` (configuration not stated) displayed a melting point of 154 to 156 °C.

As for `COc1cc(N=C2SC(=CC(=O)O)C(=O)N2c2cc(OC)c(OC)c(OC)c2)cc(OC)c1OC`, the melting point fell in the range of 250 to 252 °C.

`Oc1cc(Br)cc(I)c1` displayed a melting point of 83 to 84 °C.

For the compound `N#CCC1CC(c2ccccc2)=NO1` (configuration not stated), the melting point lay within 79 to 80.5 °C.

On to `CCc1ccc(Nc2c(C(=O)NN)ccc(F)c2F)c(F)c1`, for which the melting point fell in the range of 97.9 to 98.5 °C.

Take `Cc1ccc2c(C=O)c3ccccc3c(C=O)c2c1`: the melting point is 150 to 152 °C.

Turning to `OC[C@@H](O)[C@@H](CO)OCc1ccccc1Cl`, the melting point fell in the range of 74 to 76 °C.

`COc1ccc(C=N[C@H]2C(O)O[C@H](CO)[C@@H](O)[C@@H]2O)cc1` (some centres not stated) returned a melting point of 165 °C.

Take `CC(=O)OCCOCCN1CCC(CNC(=O)[C@@H]2CCCN2S(=O)(=O)c2ccc(Cl)c(COc3cccc4c(-n5cncn5)cc(C)nc34)c2Cl)CC1`: the melting point was determined as 86 °C.

On to `CCCCCCCCCCOc1ccc(CO)cc1OCCCCCCCCCC`, for which the melting point was in the range of 41 to 42.5 °C.

For `CC1=C(/C=C/C(C)=C/C=C/C(C)=C\C(=O)O)C(C)(C)C(O)C=C1` (configuration not stated), the melting point is 108 to 110 °C.

In turn, `CC(C)N1C(CN2CCOCC2)=Cc2cc(S(N)(=O)=O)sc2S1(=O)=O` showed a melting point of 196 to 198 °C.

The compound `N#Cc1cc(F)cc(-c2cc(N)c3c(c2)C2(CCCCC2)C(=O)N3)c1` returned a melting point of 241 to 243 °C.

For `Nc1cncnc1NCCN1CCC(Nc2nc3ccccc3n2Cc2ccc(F)cc2)CC1`, the melting point turned out to be 208 °C.

For the compound `Nc1nc(-c2ccccc2)c(-c2ccc(=O)[nH]n2)s1`, the melting point was more than 250 °C.

`CC(CCCc1ccccc1)Oc1cc(O)c2c(c1)CC(C)(C)CC2C(N)=O` (configuration not stated) displayed a melting point of 155 to 157 °C.

In turn, `N#Cc1c(N2CCCCC2)cc(-c2cccc3ccccc23)c2c1-c1ccccc1C2=O` returned a melting point of 180 to 182 °C.

As to `CCCCN(c1nc(NCC(=O)OCC)nc(N(CCCC)C2CC(C)(C)NC(C)(C)C2)n1)C1CC(C)(C)NC(C)(C)C1`, the melting point is 40 °C.

Compound `N=C(Nc1ccc(Cl)cc1)Nc1ncccc1OCc1cccc(Cl)c1F` returned a melting point of 204 to 207 °C.

For `Cc1ccc(Oc2ccc([N+](=O)[O-])cn2)cc1`, the melting point was 80 to 82 °C.

In turn, `CS(=O)(=O)Nc1ccc(CCN2CCc3ccc(NS(C)(=O)=O)cc3CC2)cc1` gave a melting point of 184 to 187 °C.

For `O=P(O)(O)C(O)(Cc1nn(-c2ccc(F)cc2)cc1-c1ccc(Cl)cc1)P(=O)(O)O`, the melting point is 201 to 203 °C.

`CC(C(=O)O)c1ccc2c(c1)C(=O)Cc1ccccc1S2` (configuration not stated): the melting point fell in the range of 130 to 132 °C.

Take `CCOC(=O)C1(C)Sc2ccccc2NC1=O` (configuration not stated): the melting point lay within 109 to 111 °C.

In turn, `c1ccc2c(c1)c1c(N3CCCC3)nc(N3CCCC3)nc1n2CCN1CCOCC1` displayed a melting point of 138 to 139 °C.

Regarding `COc1ccc2c(c1)c(CC(=O)O)c(C)n2-c1nc(SC)nc2ccccc12`, the melting point is 175 to 178 °C.

For the compound `COC(=O)COc1ccc(C(=O)c2ccccc2)c(O)c1`, the melting point was 131 to 134 °C.

The compound `Cc1cc(OCc2oc(-c3ccc(C(F)(F)F)cc3)nc2C)ccc1CCC(=O)O` came in with a melting point of 113 to 115 °C.

With `COc1ccc2[nH]c(C(=O)O)c(-c3ccccc3F)c2c1`, the melting point lay within 206 to 208 °C.

`Cc1cc(-c2cc(C(F)(F)F)n3ncc(-c4ccncc4)c3n2)ccc1Cl` came in with a melting point of 247 °C.

On to `CCOc1cccc(NC(=O)Nc2ccc(N3CCN(C(=O)Nc4cc(OCCO)ccc4Cl)CC3)nc2)c1`, for which the melting point was in the range of 140 to 143 °C.

`O=C(O)C(=O)c1ccc(OCCCn2c(=O)ccc3ccccc32)cc1`: the melting point was in the range of 183 to 186 °C.

The compound `O=Cc1ccc(-c2ccc(C=O)s2)s1` displayed a melting point of 213 to 214 °C.

In turn, `CCCCCCCCSc1ccc(-c2ncc(CCCCC)cn2)cc1` yielded a melting point of 43 °C.

The compound `CN(c1cccc2cc(-c3ncc(CCC(=O)O)s3)[nH]c12)S(=O)(=O)c1cccs1` registered a melting point of 234 to 235 °C.

In turn, `CC(=O)N(C(=O)c1ccccc1O)C(C)C(=O)O` (racemic) registered a melting point of 118 to 120 °C.

In turn, `Cc1ccncc1-c1nc(-c2ccc(Cl)cc2)c(Cl)s1` showed a melting point of 146 °C.

As to `O=C1CCN(Cc2ccc(O)cc2)CC1C(c1ccccc1)c1ccccc1` (configuration not stated), the melting point was 133 to 134 °C.

`CSc1nc2c(NCc3ccccc3)ncnc2n1C1OC(CO)C(O)C1O` (configuration not stated): the melting point was in the range of 81 to 84 °C.

Compound `O=C(Nc1cccnc1)c1ccc([N+](=O)[O-])cc1` gave a melting point of 191 to 194 °C.

Take `Cc1cc(-n2ccnc2)c2cccc(OCc3c(Cl)ccc(S(=O)(=O)N4CCC[C@H]4C(=O)N4CCN(c5ccccn5)CC4)c3Cl)c2n1`: the melting point worked out at 108 °C.

As for `O=C1NCCN1c1ccc(S(=O)(=O)Nc2ccc3c(c2)CCC3)cc1`, the melting point lay in the range of 228 to 230 °C.

`O=S(=O)(O)c1ccc(NCc2ccc(Cl)cc2)cc1` displayed a melting point of more than 270 °C.

The compound `COc1cc([N+](=O)[O-])c(CCC(=O)O)c([N+](=O)[O-])c1O` came in with a melting point of 195 °C.

`CC(=N)c1ccccc1O` displayed a melting point of 137 to 139 °C.

On to `CS(=O)(=O)Nc1cncc(C(=NCCc2ccccc2Cl)NC#N)c1`, for which the melting point came to 205 °C.

Take `COc1ccc2c(c1)c(CC(=O)O)c(C)n2CC1CCCCC1`: the melting point was in the range of 173 to 175 °C.

As to `CC(=O)Oc1ccc(C=C2CCCc3cc(C)cnc32)cc1OC(C)=O`, the melting point lay in the range of 100 to 101 °C.

`CC(=O)NCC1CC(c2ccc(F)cc2)=NO1` (configuration not stated) came in with a melting point of 167 to 168 °C.
